Source: US11291205B2, “Microbiocidal picolinamide derivatives” (Syngenta Participations AG, priority 2017, dated 2022)

Assays:
Assay type in all cases: cell-based
[1] = system: Monographella nivalis (Microdochium nivale); assay: Monographella nivalis (Microdochium nivale) / liquid culture (foot rot cereals); settings: 96 h, 200 ppm in the formulation, inhibition of growth determined photometrically 4-5 days after application, compared to untreated control, read-out: disease control
Method: Monographella nivalis (Microdochium nivale)/Liquid Culture (Foot Rot Cereals) Conidia of the fungus from cryogenic storage are directly mixed into nutrient broth (PDB potato dextrose broth). After placing a (DMSO) solution of test compound into a microtiter plate (96-well format), the nutrient broth containing the fungal spores is added. The test plates are incubated at 24° C. and the inhibition of growth is determined photometrically 4-5 days after application.

[2] = system: Mycosphaerella graminicola (Septoria tritici); assay: Mycosphaerella graminicola (Septoria tritici) / liquid culture (Septoria blotch); settings: Zymoseptoria tritici, 96 h, 200 ppm in the formulation, inhibition of growth determined photometrically 4 to 5 days after application, compared to untreated control, read-out: disease control
Method: Mycosphaerella graminicola (Septoria tritici)/Liquid Culture (Septoria Blotch) Conidia of the fungus from cryogenic storage are directly mixed into nutrient broth (PDB potato dextrose broth). After placing a (DMSO) solution of test compound into a microtiter plate (96-well format), the nutrient broth containing the fungal spores is added. The test plates are incubated at 24° C. and the inhibition of growth is determined photometrically 4 to 5 days after application.

[3] = system: Glomerella lagenarium (Colletotrichum lagenarium); assay: Glomerella lagenarium (Colletotrichum lagenarium) / liquid culture (anthracnose); settings: Colletotrichum orbiculare, 72 h, 200 ppm in the formulation, inhibition of growth measured photometrically 3 to 4 days after application, compared to untreated control, read-out: disease control
Method: Glomerella lagenarium (Colletotrichum lagenarium)/Liquid Culture (Anthracnose) Conidia of the fungus from cryogenic storage are directly mixed into nutrient broth (PDB potato dextrose broth). After placing a (DMSO) solution of test compound into a microtiter plate (96-well format), the nutrient broth containing the fungal spores is added. The test plates are incubated at 24° C. and the inhibition of growth is measured photometrically 3 to 4 days after application.

[4] = system: Mycosphaerella arachidis (Cercospora arachidicola); assay: Mycosphaerella arachidis (Cercospora arachidicola) / liquid culture (early leaf spot); settings: 96 h, 200 ppm in the formulation, inhibition of growth determined photometrically 4-5 days after application, compared to untreated control, read-out: disease control
Method: Mycosphaerella arachidis (Cercospora arachidicola)/Liquid Culture (Early Leaf Spot) Conidia of the fungus from cryogenic storage are directly mixed into nutrient broth (PDB potato dextrose broth). After placing a (DMSO) solution of test compound into a microtiter plate (96-well format), the nutrient broth containing the fungal spores is added. The test plates are incubated at 24° C. and the inhibition of growth is determined photometrically 4-5 days after application.

[5] = system: Botryotinia fuckeliana (Botrytis cinerea); assay: Botryotinia fuckeliana (Botrytis cinerea) / liquid culture (gray mould); settings: 72 h, 200 ppm in the formulation, inhibition of growth determined photometrically 3-4 days after application, compared to untreated control, read-out: disease control
Method: Botryotinia fuckeliana (Botrytis cinerea)/Liquid Culture (Gray Mould) Conidia of the fungus from cryogenic storage are directly mixed into nutrient broth (Vogels broth). After placing a (DMSO) solution of test compound into a microtiter plate (96-well format), the nutrient broth containing the fungal spores is added. The test plates are incubated at 24° C. and the inhibition of growth is determined photometrically 3-4 days after application.

Measured: inhibition of growth at 200 ppm

COc1ccnc(C(=O)N[C@@H](C)C(=O)OC2CCC2(C)c2ccc(F)cc2)c1O (stereo partly drawn) [I.ad.02, [2-(4-fluoro phenyl)-2-methyl-cyclobutyl] (2S)-2-[(3-hydroxy-4-methoxy-pyridine-2-carbonyl)amino]propanoate]
≥ 80%: [1] | [2] | [3]

CCC1(c2ccc(F)cc2)CCC1OC(=O)[C@H](C)NC(=O)c1nccc(OC)c1O (stereo partly drawn) [I.ag.02, [2-ethyl-2-(4-fluorophenyl)cyclo-butyl] (2S)-2-[(3-hydroxy-4-methoxy-pyridine-2-carbonyl)amino]propanoate]
not listed: [5]
≥ 80%: all other assays above

COc1ccnc(C(=O)N[C@@H](C)C(=O)OC2CC2c2ccc(C(C)(C)C)cc2)c1O (stereo partly drawn) [I.ap.01, [2-(4-tert-butylphenyl)cyclopropyl] (2S)-2-[(3-hydroxy-4-methoxy-pyridine-2-carbonyl)amino]propanoate]
≥ 80%: all assays above

CCCc1ccc(C2CC2OC(=O)[C@H](C)NC(=O)c2nccc(OC)c2O)cc1 (stereo partly drawn) [I.aq.01, [2-(4-propylphenyl)cyclopropyl] (2S)-2-[(3-hydroxy-4-methoxy-pyridine-2-carbonyl)amino]propanoate]
≥ 80%: all assays above

COc1ccnc(C(=O)N[C@@H](C)C(=O)OC2CCC2(c2ccc(F)cc2)C2CC2)c1O (stereo partly drawn) [I.ar.02, [2-cyclopropyl-2-(4-fluorophenyl)cyclobutyl] (2S)-2-[(3-hydroxy-4-methoxy-pyridine-2-carbonyl)amino]propanoate]
≥ 80%: all assays above

COc1ccnc(C(=O)N[C@@H](C)C(=O)OC2CCC2(c2ccc(Cl)cc2)C2CC2)c1O (stereo partly drawn) [I.as.02, [2-(4-chlorophenyl)-2-cyclopropyl-cyclobutyl] (2S)-2-[(3-hydroxy-4-methoxy-pyridine-2-carbonyl)amino]propanoate]
≥ 80%: all assays above

COc1ccnc(C(=O)N[C@@H](C)C(=O)OC2CCC2(CC(C)C)c2ccc(F)cc2)c1O (stereo partly drawn) [I.at.02, [2-(4-fluorophenyl)-2-isobutyl-cyclobutyl] (2S)-2-[(3-hydroxy-4-methoxy-pyridine-2-carbonyl)amino]propanoate]
not listed: [5]
≥ 80%: all other assays above

COc1ccnc(C(=O)N[C@@H](C)C(=O)OC2CCC2(Cc2ccccc2)c2ccc(F)cc2)c1O (stereo partly drawn) [I.au02]
≥ 80%: all assays above

COc1ccnc(C(=O)N[C@@H](C)C(=O)OC2CCC2c2ccc(F)cc2)c1O (stereo partly drawn) [I.e.02, [2-(4-fluorophenyl)cyclobutyl] (2S)-2-[(3-hydroxy-4-methoxy-pyridine-2-carbonyl)amino]propanoate]
≥ 80%: all assays above

COc1ccnc(C(=O)N[C@@H](C)C(=O)OC2CCC2c2ccc(Cl)cc2)c1O (stereo partly drawn) [I.f.02, [2-(4-chlorophenyl)cyclobutyl] (2S)-2-[(3-hydroxy-4-methoxy-pyridine-2-carbonyl)amino]propanoate]
≥ 80%: all assays above

COc1ccnc(C(=O)N[C@@H](C)C(=O)OC2CCC2c2ccc(F)cc2F)c1O (stereo partly drawn) [I.h.02, [2-(2,4-difluorophenyl)cyclobutyl] (2S)-2-[(3-hydroxy-4-methoxy-pyridine-2-carbonyl)amino]propanoate]
≥ 80%: all assays above

COc1ccnc(C(=O)N[C@@H](C)C(=O)OC2CCC2c2ccc(Cl)cc2Cl)c1O (stereo partly drawn) [I.i.02, [2-(2,4-dichlorophenyl)cyclobutyl] (2S)-2-[(3-hydroxy-4-methoxy-pyridine-2-carbonyl)amino]propanoate]
≥ 80%: all assays above

COc1ccnc(C(=O)N[C@@H](C)C(=O)OC2CCC2(c2ccccc2)c2ccccc2)c1O (stereo partly drawn) [I.k.02, (2,2-diphenyl cyclobutyl) (2S)-2-[(3-hydroxy-4-methoxy-pyridine-2-carbonyl)amino]propanoate]
≥ 80%: all assays above

COc1ccnc(C(=O)N[C@@H](C)C(=O)OC2CCC2(c2cccc(C)c2)c2cccc(C)c2)c1O (stereo partly drawn) [I.s.02, [2,2-bis(m-tolyl)cyclobutyl] (2S)-2-[(3-hydroxy-4-methoxy-pyridine-2-carbonyl)amino]propanoate]
not listed: [5]
≥ 80%: all other assays above

COc1ccnc(C(=O)N[C@@H](C)C(=O)OC2CCC2(c2ccc(F)cc2)c2ccc(F)cc2)c1O (stereo partly drawn) [I.u.02, [2,2-bis(4-fluorophenyl)cyclobutyl] (2S)-2-[(3-hydroxy-4-methoxy-pyridine-2-carbonyl)amino]propanoate]
≥ 80%: all assays above

COc1ccnc(C(=O)N[C@@H](C)C(=O)OC2CCC2(c2ccc(Cl)cc2)c2ccc(Cl)cc2)c1O (stereo partly drawn) [I.v.02, [2,2-bis(4-chlorophenyl)cyclobutyl] (2S)-2-[(3-hydroxy-4-methoxy-pyridine-2-carbonyl)amino]propanoate]
not listed: [5]
≥ 80%: all other assays above

COc1ccnc(C(=O)N[C@@H](C)C(=O)OC2CCC2(c2ccc(C)cc2)c2ccc(C)cc2)c1O (stereo partly drawn) [I.w.02, [2,2-bis(p-tolyl)cyclobutyl](2S)-2-[(3-hydroxy-4-methoxy-pyridine-2-carbonyl)amino]propanoate]
not listed: [5]
≥ 80%: all other assays above
